Here are results for 14 molecules from patent US20260159533A1, “INHIBITORS OF COMPLEMENT FACTORS AND USES THEREOF” (Annexon, Inc., priority 2022, published 2026).

SMILES strings stand for the structures. Counter-ions that a name gives are not always drawn.

This test has as its target T1, human C1s protein (Homo sapiens, UniProt P09871).
T1 construct: purchased R&D Systems or Complement Technologies 2060-SE or A104
T1 sequence (P09871 16-688): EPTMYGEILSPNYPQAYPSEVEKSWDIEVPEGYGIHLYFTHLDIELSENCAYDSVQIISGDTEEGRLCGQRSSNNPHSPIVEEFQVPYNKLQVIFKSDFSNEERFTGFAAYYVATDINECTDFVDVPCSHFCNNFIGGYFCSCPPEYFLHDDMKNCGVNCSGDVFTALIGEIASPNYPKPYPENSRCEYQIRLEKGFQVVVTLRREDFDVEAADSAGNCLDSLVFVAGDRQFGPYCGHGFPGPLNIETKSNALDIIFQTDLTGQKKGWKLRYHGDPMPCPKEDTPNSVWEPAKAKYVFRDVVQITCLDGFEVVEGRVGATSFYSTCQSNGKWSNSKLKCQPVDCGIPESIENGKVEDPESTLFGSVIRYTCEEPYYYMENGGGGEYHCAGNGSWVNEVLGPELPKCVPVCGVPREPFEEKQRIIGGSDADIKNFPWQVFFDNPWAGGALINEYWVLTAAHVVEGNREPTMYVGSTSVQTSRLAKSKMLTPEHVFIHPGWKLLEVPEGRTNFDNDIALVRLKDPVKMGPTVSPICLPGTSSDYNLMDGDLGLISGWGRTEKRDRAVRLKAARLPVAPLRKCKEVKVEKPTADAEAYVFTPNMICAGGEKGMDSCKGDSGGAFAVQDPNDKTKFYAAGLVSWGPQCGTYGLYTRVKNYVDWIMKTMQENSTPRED
As to the kind of experiment: recombinant C1s enzymatic assay (YLGR-Rh110-dPro substrate hydrolysis, fluorescence). The format is biochemical. The conditions noted are these: recombinant human C1s 2.5 nM, substrate YLGR-Rh110-dPro 20 μM, 15 min pre-incubation, 60 min RT; read-out: rec. hC11s pIC50 (converted). The protocol: Compound testing in the purified or recombinant C1s enzymatic assay C1s is a serine protease; its enzymatic activity is measured in vitro by the hydrolysis of the synthetic substrate YLGR-Rh110-dPro (Kerr F K, O'Brien G, Quinsey N S, Whisstock J C, Boyd S, de la Banda M G, Kaiserman D, Matthews A Y, Bird P I, Pike R N. Elucidation of the substrate specificity of the Cis protease of the classical complement pathway. J. Biol. Chem. (2005) 280, 39510-39514). The enzyme cleaves the substrate with the release of Rh110 which is highly fluorescent. Cis inhibitors prevent the hydrolysis of the substrate thus resulting in a decrease of the signal.
The recombinant C1s enzymatic assay is performed using the human C1s protein (R&D Systems, 2060-SE or Complement Technologies, A104). The assay buffer composition is: 50 mM HEPES pH 7.5 (Sigma, H3375), 150 mM NaCl (Sigma, S7653), 0.2% PEG 8000 (VWR, AA43443-22), 0.01% Pluronic F127 (Sigma, P2243). On the day of the experiment 0.1 mg/mL BSA (Sigma, B4287) is added fresh to the buffer. The test item stock solutions are serially diluted 1:3 or 1:4 or 1:5 with DMSO, 11-point curves, in a 384-well compound plate. Nafamostat concentration curve is always included in the assay plate as a reference control.
The assay plate is prepared by dispensing 0.25 μL from compound plate into a 384-well black assay plate (assay plate, Greiner Fluotrac 200, 781076, VWR 736-0140). The high controls are prepared dispensing in 0.25 μL DMSO in column 23, rows AH or AP and low controls with 0.25 μL of 0.1 μM Nafamostat. Cis solution is prepared as 2× of the 2.5 nM final assay concentration. The YLGR-Rh110-dPro substrate is prepared as 2× of the final assay concentration of 20 μM. 5 μL/well of 2× enzyme solution is dispensed and pre-incubated for 15 min with the compounds. The enzymatic reaction is the started with 5 μL/well of the 2× substrate solution. The plate is incubated for 60 min RT in the dark and fluorescence is measured (ex 485/em 535 nm) using an Envision (PerkinElmer) or an equivalent instrument.
With `Nc1cnnc2cc(-c3cc4c(cc3-c3ncco3)OCCOB4O)ccc12` [Example 74, 7-(1-hydroxy-7-oxazol-2-yl-3,4-dihydro-2,5,1-benzodioxaborepin-8-yl)cinnolin-4-amine], the IC50 is 1.12 nM.

Turning to `COc1cc(-c2ncc(F)s2)c(-c2ccc3c(N)cnnc3c2)cc1B(O)O` [Example 75, [5-(4-aminocinnolin-7-yl)-4-(5-fluorothiazol-2-yl)-2-methoxy-phenyl]boronic acid], the IC50 is 0.977 nM. As for `Nc1cnnc2cc(-c3cc4c(cc3-c3nccs3)OCCOB4O)ccc12` [Example 76, 7-(1-hydroxy-7-thiazol-2-yl-3,4-dihydro-2,5,1-benzodioxaborepin-8-yl)cinnolin-4-amine], the IC50 was 1.45 nM. As for `CC1(C)COc2cc(-n3cccn3)c(-c3ccc4c(N)cnnc4c3)cc2B(O)O1` [Example 77, 7-(1-hydroxy-3,3-dimethyl-7-pyrazol-1-yl-4H-2,5,1-benzodioxaborepin-8-yl)cinnolin-4-amine], the IC50 was 1.58 nM. Then `COc1cc(-n2cc(C(F)(F)F)cn2)c(-c2ccc3c(N)cnnc3c2)cc1B(O)O` [Example 81, 5-(4-aminocinnolin-7-yl)-2-methoxy-4-[4-(trifluoromethyl)pyrazol-1-yl]phenyl]boronic acid formic acid salt], with 1.17 nM; and `CCOc1cc(-n2cccn2)c(-c2ccc3c(N)cnnc3c2)cc1B(O)O` [Example 82, [5-(4-aminocinnolin-7-yl)-2-ethoxy-4-pyrazol-1-yl-phenyl]boronic acid], with 1.23 nM; and `COc1cc(-c2ncc(C(F)(F)F)s2)c(-c2ccc3c(N)cnnc3c2)cc1B(O)O` [Example 83, [5-(4-aminocinnolin-7-yl)-2-methoxy-4-[5-(trifluoromethyl)thiazol-2-yl]phenyl]boronic acid], with 1.23 nM. On to `COc1cc(-n2cc(OC(F)F)cn2)c(-c2ccc3c(N)cnnc3c2)cc1B(O)O` [Example 84, [5-(4-aminocinnolin-7-yl)-4-[4-(difluoromethoxy)pyrazol-1-yl]-2-methoxy-phenyl]boronic acid formic acid salt], for which the IC50 was 0.741 nM. Then `COc1cc(-n2cc(OC(F)(F)F)cn2)c(-c2ccc3c(N)cnnc3c2)cc1B(O)O` [Example 85, [5-(4-aminocinnolin-7-yl)-2-methoxy-4-[4-(trifluoromethoxy)pyrazol-1-yl]phenyl]boronic acid formic acid salt], with 1.2 nM; and `COc1cc(-c2ncc(C(F)F)s2)c(-c2ccc3c(N)cnnc3c2)cc1B(O)O` [Example 86, [5-(4-aminocinnolin-7-yl)-4-[5-(difluoromethyl)thiazol-2-yl]-2-methoxy-phenyl]boronic acid], with 0.741 nM. With `COc1cc(-c2ncc(C)o2)c(-c2ccc3c(N)cnnc3c2)cc1B(O)O` [Example 88, [5-(4-aminocinnolin-7-yl)-2-methoxy-4-(5-methyloxazol-2-yl)phenyl]boronic acid formic acid salt] the figure was 0.724 nM; with `Nc1cnnc2cc(-c3cc(B(O)O)c(OC4CC4)cc3-n3cccn3)ccc12` [Example 89, [5-(4-aminocinnolin-7-yl)-2-(cyclopropoxy)-4-pyrazol-1-yl-phenyl]boronic acid formic acid salt], 0.759 nM; with `COc1cc(-c2ncc(C(F)F)o2)c(-c2ccc3c(N)cnnc3c2)cc1B(O)O` [Example 90, [5-(4-aminocinnolin-7-yl)-4-[5-(difluoromethyl)oxazol-2-yl]-2-methoxy-phenyl]boronic acid formic acid salt], 1.02 nM. With `COc1cc(-c2ncns2)c(-c2ccc3c(N)cnnc3c2)cc1B(O)O` [Example 91, [5-(4-aminocinnolin-7-yl)-2-methoxy-4-(1,2,4-thiadiazol-5-yl)phenyl]boronic acid formic acid salt], the IC50 was 0.468 nM.
